# Experimental data as given in publication PMC12643509, “High-throughput screens identify genotype-specific therapeutics for channelopathies” (JCI Insight, 2025).
# Values joined by “and” are separate entries in the source; they are usually repeats but may differ in a detail not shown here. Equal entries are not always repeated.
# Experiments:
# [1] = molecular target: wild-type KV11.1 (Homo sapiens, UniProt Q12809)
# [2] = molecular target: WT Kv11.1 (Homo sapiens, UniProt Q12809); details: 24 hour and washout, individual wells
# Chain of WT Kv11.1 (Q12809 whole entry): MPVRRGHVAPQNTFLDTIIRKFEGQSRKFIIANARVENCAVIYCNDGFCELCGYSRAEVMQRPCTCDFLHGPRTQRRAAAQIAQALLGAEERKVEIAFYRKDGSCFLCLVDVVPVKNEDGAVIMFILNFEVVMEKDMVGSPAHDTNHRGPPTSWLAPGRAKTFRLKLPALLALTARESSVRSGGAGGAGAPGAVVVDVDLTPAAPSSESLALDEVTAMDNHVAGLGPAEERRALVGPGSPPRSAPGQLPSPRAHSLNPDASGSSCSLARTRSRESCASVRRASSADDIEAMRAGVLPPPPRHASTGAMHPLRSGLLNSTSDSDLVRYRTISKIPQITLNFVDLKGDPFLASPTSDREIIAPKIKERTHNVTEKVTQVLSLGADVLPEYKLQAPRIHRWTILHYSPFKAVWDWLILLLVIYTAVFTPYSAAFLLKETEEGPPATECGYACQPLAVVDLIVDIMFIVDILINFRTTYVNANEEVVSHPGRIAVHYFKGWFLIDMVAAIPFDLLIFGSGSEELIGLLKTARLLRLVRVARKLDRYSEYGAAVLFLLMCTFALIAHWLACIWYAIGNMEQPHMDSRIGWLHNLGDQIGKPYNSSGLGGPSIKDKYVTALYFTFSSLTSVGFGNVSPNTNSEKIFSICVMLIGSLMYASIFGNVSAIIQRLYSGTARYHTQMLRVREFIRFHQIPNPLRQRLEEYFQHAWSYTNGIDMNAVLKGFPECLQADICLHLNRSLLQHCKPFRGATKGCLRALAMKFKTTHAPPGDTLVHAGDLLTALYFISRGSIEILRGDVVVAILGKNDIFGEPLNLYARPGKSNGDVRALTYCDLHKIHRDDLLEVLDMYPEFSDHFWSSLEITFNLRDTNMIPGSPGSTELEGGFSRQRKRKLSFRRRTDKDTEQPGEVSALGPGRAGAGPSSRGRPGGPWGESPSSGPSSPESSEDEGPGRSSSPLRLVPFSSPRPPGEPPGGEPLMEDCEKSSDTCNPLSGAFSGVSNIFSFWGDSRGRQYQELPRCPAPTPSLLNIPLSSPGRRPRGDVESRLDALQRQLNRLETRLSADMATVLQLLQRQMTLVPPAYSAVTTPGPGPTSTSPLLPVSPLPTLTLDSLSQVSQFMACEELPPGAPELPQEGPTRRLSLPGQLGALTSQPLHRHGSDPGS
# Description: plot of hits tested for 24-h our WT toxicity. Each point repres ents the med ia n robust Z score
# after 24-hour treatm ent and washout in cells ex pressing WT.
# robust Z scores be low bas eli ne function).
# second ary screens w ere perform ed i n triplicate us ing 1 0 µ M drug treatme nt to assess: 1)
# acute channel block, measur ed after a 15-minute inc ubati on with the drug present duri ng
# recordi ngs; and 2) t oxicit y in W T channels, assesse d af t er a 24-hour drug ex posure fol low ed
# (C) Tl+-measurements after 24-hour treatment and washout in HEK cells
# Chain of wild-type KV11.1 (Q12809 whole entry): as above
Structure (SMILES),inhibition of WT channels [1],Changes in WT function (thallium flux) [2]
"CCc1c(C)[nH]c2c1C(=O)C(CN1CCOCC1)CC2 (stereo not drawn) [Moban, moban]",did not inhibit WT channels,
"OC[C@H]1O[C@H](O[C@]2(CCl)O[C@H](CCl)[C@@H](O)[C@@H]2O)[C@H](O)[C@@H](O)[C@H]1Cl [Sucralose, sucralose]",did not inhibit WT channels,0.1161 and 0.1317 and 0.1214
